One data set deals with p38β (Homo sapiens, UniProt Q15759). Kind of data set: p38β kinase screening experiment (ADP-Glo). Type of data set: biochemical. As for the experimental part:
(§1) A certain amount of the compound is weighed, prepared into a 10/50 mM mother solution with DMSO, diluted 3 folds with DMSO, and diluted to 10 concentration points as a compound working solution.
50 nL of the diluted compound working solution is transferred to each well of a reaction plate (784075, Greiner) with Echo 655, then 2.5 μL (2 ng/μL) of a p38β kinase solution is added; after 10 minutes at room temperature, 2.5 μL of a mixed solution of a kinase substrate (0.4 mg/mL) and ATP (100 μM) is added, for reaction for 60 min at room temperature; and 4 μL of an ADP Glo reagent is added, for incubation for 40 min at room temperature. 8 μL of a kinase detection reagent is added, for incubation for 40 min at room temperature; and finally a light-emitting signal is read on Envision 2104.
A general note: ADP-Glo first removes unused ATP, then detects ADP through luciferase.

The nature of data set [1]: Pharmacokinetic experiment in Beagle dogs (IV and PO). Type of data set: in vivo. To be noted: male, dog, plasma, PO 5 mg/kg. From the text: Polyethylene glycol 400 (batch number: GORKREUT, Saen Chemical Technology (Shanghai) Co., Ltd.); DMSO (batch number: 20200319, GHTECH (Guangdong) Co., Ltd.); and normal saline (batch number: C20052604, Jiangxi Kelun Pharmaceutical Co., Ltd.). An LC-MS instrument (Thermo Fisher Ultimate 3000 UPLC, TSQ QUANTUM ULTRA TSQ Quantum GC).
5 male Beagle dogs with weights being 5 kg to 7 kg, purchased from Beijing Mars Biotechnology Co., Ltd. […]
After the above mixture is given to the dogs through intragastric administration (n=3) or intravenous administration (n=2), about 1 mL of blood is collected from the forelimb or hindlimb vein with a scalp needle, respectively, at 5 min (intravenous administration only), 15 min, 30 min, 1 h, 2 h, 4 h, 6 h, 8 h, 24 h to put into blood collection tubes containing EDTA-K2 anticoagulant; centrifugation is performed for 10 min at 4000 rpm to separate plasma; and then the tubes are stored at −80° C. for testing.
A certain amount of a test sample is accurately weighted and dissolved with DMSO to 2 mg/mL, as a stock solution. The stock solution is diluted to 30000, 10000, 3000, 1000, 300, 100, 50, 30, and 10 ng/mL by using acetonitrile:water (1:1), to obtain standard curve working solutions. 5 μL of the working solution is added to 45 μL of blank canine plasma; and well mixing is performed through vortex, to prepare into standard curve samples equivalent to plasma concentrations of 3000, 1000, 300, 100, 30, 10, 5, 3, and 1 ng/mL. 30 μL of the standard curve sample and the collected plasma sample (plasma collected at 5 min, 15 min, and 30 min of intravenous administration is diluted 5-fold) are added to 150 μL of a propranolol acetonitrile solution (internal standard, 50 ng/mL) to precipitate protein, then 100 μL of water is added to well mix through vortex; centrifugation is performed for 5 min at 4000 rpm; and supernatant is taken for LC-MS analysis. LC-MS detection conditions include the following.
Chromatographic column: Waters ACQUITY™ PREMIER HSS T3, 50*2.1 mm, 1.8 μm.
Mobile phase A: water (0.1% formic acid); mobile phase B: acetonitrile; flow rate: 0.5 mL/min; and gradient elution is shown in Table 3 below.
After LC-MS detection of blood drug concentration, and a non-compartment model of WinNonlin 6.1 software is adopted to calculate pharmacokinetic parameters of beagle dogs after administration.

Another data set addresses p38α (Homo sapiens, UniProt Q16539). Kind of data set: p38α kinase screening experiment (ADP-Glo). Type of data set: biochemical. How it is done:
as §1
50 nL of the diluted compound working solution is transferred to each well of a reaction plate (784075, Greiner) with Echo 655, then 2.5 μL (4 ng/μL) of a p38α kinase solution is added; after 10 minutes at room temperature, 2.5 μL of a mixed solution of a kinase substrate (0.2 mg/mL) and ATP (150 μM) is added, for reaction for 60 min at room temperature; and 4 μL of an ADP Glo reagent is added, for incubation for 40 min at room temperature. 8 μL of a kinase detection reagent is added, for incubation for 40 min at room temperature; and finally a light-emitting signal is read on Envision 2104.

p38α, sequence (Q16539 whole entry): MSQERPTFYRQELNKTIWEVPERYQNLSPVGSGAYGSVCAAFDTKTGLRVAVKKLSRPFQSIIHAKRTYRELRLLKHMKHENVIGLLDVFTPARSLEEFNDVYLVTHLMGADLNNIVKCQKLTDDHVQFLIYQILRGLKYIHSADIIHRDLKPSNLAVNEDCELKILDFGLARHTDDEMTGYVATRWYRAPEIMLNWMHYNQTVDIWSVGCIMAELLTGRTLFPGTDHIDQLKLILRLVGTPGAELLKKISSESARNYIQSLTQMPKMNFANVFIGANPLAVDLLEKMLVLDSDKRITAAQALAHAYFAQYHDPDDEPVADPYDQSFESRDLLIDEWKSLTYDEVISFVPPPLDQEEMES
p38β, sequence (Q15759 whole entry): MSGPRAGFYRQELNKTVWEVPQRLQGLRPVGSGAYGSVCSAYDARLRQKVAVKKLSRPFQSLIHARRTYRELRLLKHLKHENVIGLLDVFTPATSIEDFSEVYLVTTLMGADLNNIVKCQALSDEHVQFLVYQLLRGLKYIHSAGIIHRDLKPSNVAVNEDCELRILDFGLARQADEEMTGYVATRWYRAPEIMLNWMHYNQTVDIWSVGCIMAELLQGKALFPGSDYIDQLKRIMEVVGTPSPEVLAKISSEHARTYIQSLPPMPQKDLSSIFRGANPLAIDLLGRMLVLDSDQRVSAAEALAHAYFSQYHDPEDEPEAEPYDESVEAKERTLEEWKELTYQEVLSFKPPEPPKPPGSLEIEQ

The term IC50 denotes the concentration that inhibits the measured activity by half. A word on the AUC(0-t): it is the area under the concentration-time curve up to a stated or last time point. Low readings indicate less exposure, high ones more exposure. Broadly, the Cmax is the highest concentration seen after dosing. With `Cc1cnc(-n2cccc(C(C)(C)O)c2=O)cc1-n1c(C)cc(OCc2ncc(F)cc2F)c(Cl)c1=O` [Comparative example 1], the IC50 at p38β (ATP 100 μM in the substrate/ATP mix, 60 min, read-out: IC50 value that the compound inhibits p38β) is 4.1 µM. Besides, the “Activity multiple relative to p38β/(p38α/MK2 complex)” value at p38β (ratio of p38β IC50 to p38α/MK2 complex IC50 of Embodiment 50) was 1575. Moreover, in data set [1], the AUC(0-t) turned out to be 32900 ng·h/mL and the maximum concentration (Cmax) was 5550 ng/mL. On p38α (ATP 150 μM in the substrate/ATP mix, 60 min, read-out: IC50 value that the compound inhibits p38α), the IC50 was determined as 0.578 µM. The “Activity multiple relative to p38α/(p38α/MK2 complex)” value at p38α (ratio of p38α IC50 to p38α/MK2 complex IC50 of Embodiment 50) stood at 222.

(Values after patent publication US20240166627A1, “Terpyridinedione compound or salt thereof, and preparation method and application thereof” (SHENZHEN SALUBRIS PHARMACEUTICALS CO., LTD., priority 2021, published 2024).)
